For assay [1], the target named is T1, human CYP11B1 (Homo sapiens, UniProt P15538).
T1 construct: expressed in transfected cells
T1 sequence (P15538 25-503): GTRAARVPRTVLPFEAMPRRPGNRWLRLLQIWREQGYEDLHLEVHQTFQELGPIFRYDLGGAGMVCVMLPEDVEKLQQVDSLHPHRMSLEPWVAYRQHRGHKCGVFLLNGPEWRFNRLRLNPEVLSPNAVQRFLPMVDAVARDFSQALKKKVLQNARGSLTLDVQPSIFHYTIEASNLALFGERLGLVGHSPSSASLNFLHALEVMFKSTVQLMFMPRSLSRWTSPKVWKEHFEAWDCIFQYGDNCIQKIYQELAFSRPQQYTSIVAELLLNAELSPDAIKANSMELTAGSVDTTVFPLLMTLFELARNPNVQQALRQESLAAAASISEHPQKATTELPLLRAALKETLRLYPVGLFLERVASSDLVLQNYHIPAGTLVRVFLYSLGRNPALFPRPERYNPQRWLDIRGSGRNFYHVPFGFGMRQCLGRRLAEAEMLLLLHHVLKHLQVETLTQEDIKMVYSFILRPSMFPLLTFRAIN
As to the kind of experiment: G-402 cellular enzyme assay, human CYP11B1 (cortisol release, HTRF). The assay is classed as cell-based. To be noted: G-402 cells expressing human CYP11B1; 1 μM Deoxycortisol. The gist of the method: (§1)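 G-402 cells stably expressing human CYP11B2 or CYP11B1, in DMEM/F12 with 2.5% charcoal-treated FCS, were incubated 16 h with compound plus 1 μM deoxycorticosterone (CYP11B2) or 1 μM deoxycortisol (CYP11B1). Aldosterone or cortisol in the supernatant measured by HTRF; EC50 from a 4-parameter MMF fit.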

The target in assay [2] is T2, human CYP11B2 (Homo sapiens, UniProt P19099).
T2 construct: expressed in transfected cells
T2 sequence (P19099 25-503): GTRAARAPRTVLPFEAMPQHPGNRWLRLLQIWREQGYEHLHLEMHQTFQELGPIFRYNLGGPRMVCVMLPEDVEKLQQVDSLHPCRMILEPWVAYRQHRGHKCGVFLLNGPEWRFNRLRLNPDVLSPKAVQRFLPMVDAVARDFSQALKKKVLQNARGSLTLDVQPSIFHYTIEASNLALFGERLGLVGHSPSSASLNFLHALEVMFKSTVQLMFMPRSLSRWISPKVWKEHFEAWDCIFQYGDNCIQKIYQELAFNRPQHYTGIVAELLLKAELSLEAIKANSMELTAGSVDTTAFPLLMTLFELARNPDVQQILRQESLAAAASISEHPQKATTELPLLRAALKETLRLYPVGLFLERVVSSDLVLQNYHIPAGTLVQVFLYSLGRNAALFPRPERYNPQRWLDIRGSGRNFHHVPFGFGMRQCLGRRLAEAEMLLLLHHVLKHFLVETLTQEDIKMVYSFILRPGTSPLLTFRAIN
As to the kind of experiment: G-402 cellular enzyme assay, human CYP11B2 (aldosterone release, HTRF). The conditions noted are these: G-402 cells expressing human CYP11B2; 1 μM Deoxycorticosterone. In kind it is cell-based. The gist of the method:
as §1

For `CCS(=O)(=O)NC1(c2cncc(-c3ccc4c(c3)CCC(=O)N4C)c2)CC1` [Example 166, Ethanesulfonic acid {1-[5-(1-methyl-2-oxo-1,2,3,4-tetrahydro-quinolin-6-yl)-pyridin-3-yl]-cyclopropyl}-amide], the EC50 is 1210 nM in assay [1] and 22 nM in assay [2].

For `CCS(=O)(=O)N1CCC[C@H]1COc1cncc(-c2ccc3c(c2)CCC(=O)N3C)c1` [Example 167, 6-[5-((S)-1-Ethanesulfonyl-pyrrolidin-2-ylmethoxy)-pyridin-3-yl]-1-methyl-3,4-dihydro-1H-quinolin-2-one], the half-maximal effective concentration (EC50) in assay [1] was 898 nM; in assay [2] it was 18 nM.

For `CCS(=O)(=O)N1CC[C@@H](Oc2cncc(-c3cc4c(cc3F)N(C)C(=O)CC4)c2)C1` [Example 168, 6-[5-((R)-1-Ethanesulfonyl-pyrrolidin-3-yloxy)-pyridin-3-yl]-7-fluoro-1-methyl-3,4-dihydro-1H-quinolin-2-one], the EC50 in assay [1] came to 273 nM; in assay [2], 14 nM.

In the case of `CCS(=O)(=O)N1CC[C@@H](Oc2cncc(-c3ccc4c(c3)CCC(=O)N4C)c2)C1` [Example 169, 6-[5-((R)-1-Ethanesulfonyl-pyrrolidin-3-yloxy)-pyridin-3-yl]-1-methyl-3,4-dihydro-1H-quinolin-2-one], the figures for the EC50 in assay [1] and in assay [2] were 850 nM and 35 nM, respectively.

For the compound `CCS(=O)(=O)N1CC(Oc2cncc(-c3ccc4c(c3)CCC(=O)N4C)c2)C1` [Example 170, 6-[5-(1-Ethanesulfonyl-azetidin-3-yloxy)-pyridin-3-yl]-1-methyl-3,4-dihydro-1H-quinolin-2-one], the figures for the EC50 in assay [1] and in assay [2] were 699 nM and 15 nM, respectively.

For the compound `CCS(=O)(=O)NC1(c2cncc(-c3cc4c(cc3F)N(C)C(=O)CC4)c2)CC1` [Example 171, Ethanesulfonic acid {1-[5-(7-fluoro-1-methyl-2-oxo-1,2,3,4-tetrahydro-quinolin-6-yl)-pyridin-3-yl]-cyclopropyl}-amide], the EC50 turned out to be 420 nM in assay [1] and 9 nM in assay [2].

For `CCS(=O)(=O)N[C@H]1CC[C@H](Oc2cncc(-c3ccc4c(c3)CCC(=O)N4C)c2)CC1` [Example 172, Ethanesulfonic acid {(trans)-4-[5-(1-methyl-2-oxo-1,2,3,4-tetrahydro-quinolin-6-yl)-pyridin-3-yloxy]-cyclohexyl}-amide], the EC50 stood at 69 nM in assay [1] and 1 nM in assay [2].

As to `CN1C(=O)CCc2cc(-c3cncc(CNC(=O)c4cnn(C)c4)c3)c(F)cc21` [Example 175, 1-Methyl-1H-pyrazole-4-carboxylic acid [5-(7-fluoro-1-methyl-2-oxo-1,2,3,4-tetrahydro-quinolin-6-yl)-pyridin-3-ylmethyl]-amide], the EC50 in assay [1] turned out to be 688 nM; in assay [2], 7 nM.

On to `CN1C(=O)CCc2cc(-c3cncc(CN4CCCS4(=O)=O)c3)ccc21` [Example 179, 6-[5-(1,1-Dioxo-1λ^6-isothiazolidin-2-ylmethyl)-pyridin-3-yl]-1-methyl-3,4-dihydro-1H-quinolin-2-one], for which the EC50 in assay [1] worked out at 169 nM; in assay [2], 12 nM.

`CCN(Cc1cncc(-c2ccc3c(c2)CCC(=O)N3C)c1)S(=O)(=O)CC` [Example 181, Ethanesulfonic acid ethyl-[5-(1-methyl-2-oxo-1,2,3,4-tetrahydro-quinolin-6-yl)-pyridin-3-ylmethyl]-amide]: the results for the concentration giving a half-maximal response (EC50) in assay [1] and in assay [2] were 2320 nM and 25 nM, respectively.

Take `CCS(=O)(=O)N(C)Cc1cncc(-c2ccc3c(c2)CCC(=O)N3C)c1` [Example 182, Ethanesulfonic acid methyl-[5-(1-methyl-2-oxo-1,2,3,4-tetrahydro-quinolin-6-yl)-pyridin-3-ylmethyl]-amide]: the figures for the concentration giving a half-maximal response (EC50) in assay [1] and in assay [2] were 302 nM and 6 nM, respectively.

With `CCS(=O)(=O)NC(C)(C)c1cncc(-c2ccc3c(c2)CCC(=O)N3C)c1` [Example 183, Ethanesulfonic acid {1-methyl-1-[5-(1-methyl-2-oxo-1,2,3,4-tetrahydro-quinolin-6-yl)-pyridin-3-yl]-ethyl}-amide], the values for the concentration for a half-maximal effect (EC50) in assay [1] and in assay [2] were 268 nM and 4 nM, respectively.

With `CCS(=O)(=O)N(Cc1cncc(-c2ccc3c(c2)CCC(=O)N3C)c1)C(C)C` [Example 184, Ethanesulfonic acid isopropyl-[5-(1-methyl-2-oxo-1,2,3,4-tetrahydro-quinolin-6-yl)-pyridin-3-ylmethyl]-amide], the EC50 was 9740 nM in assay [1] and 227 nM in assay [2].

For the compound `CCOCCN(Cc1cncc(-c2ccc3c(c2)CCC(=O)N3C)c1)S(=O)(=O)CC` [Example 185, Ethanesulfonic acid (2-ethoxy-ethyl)-[5-(1-methyl-2-oxo-1,2,3,4-tetrahydro-quinolin-6-yl)-pyridin-3-ylmethyl]-amide], the EC50 in assay [1] was 9290 nM; in assay [2] it was 633 nM.

As for `Cc1noc(C)c1C(=O)N(C)Cc1cncc(-c2ccc3c(c2)CCC(=O)N3C)c1` [Example 188, 3,5-Dimethyl-isoxazole-4-carboxylic acid methyl-[5-(1-methyl-2-oxo-1,2,3,4-tetrahydro-quinolin-6-yl)-pyridin-3-ylmethyl]-amide], the EC50 in assay [1] came out at 572 nM; in assay [2] it was 14 nM.

As for `CN1C(=O)CCc2cc(-c3cncc(OCCN4CCCS4(=O)=O)c3)ccc21` [Example 189, 6-{5-[2-(1,1-Dioxo-1λ^6-isothiazolidin-2-yl)-ethoxy]-pyridin-3-yl}-1-methyl-3,4-dihydro-1H-quinolin-2-one], the EC50 in assay [1] is 93 nM; in assay [2], 2 nM.

As to `CCS(=O)(=O)NCc1cncc(-c2cc3c(cc2F)N(C)C(=O)CC3)c1C` [Example 192, Ethanesulfonic acid [5-(7-fluoro-1-methyl-2-oxo-1,2,3,4-tetrahydro-quinolin-6-yl)-4-methyl-pyridin-3-ylmethyl]-amide], the values for the EC50 in assay [1] and in assay [2] were 1980 nM and 29 nM, respectively.

`CCS(=O)(=O)NCc1cncc(-c2ccc3c(c2)CCC(=O)N3C)c1Cl` [Example 193, Ethanesulfonic acid [4-chloro-5-(1-methyl-2-oxo-1,2,3,4-tetrahydro-quinolin-6-yl)-pyridin-3-ylmethyl]-amide]: the results for the EC50 in assay [1] and in assay [2] were 1010 nM and 22 nM, respectively.

Take `CCS(=O)(=O)NCc1cncc(-c2ccc3c(c2)CCC(=O)N3C)c1C` [Example 194, Ethanesulfonic acid [4-methyl-5-(1-methyl-2-oxo-1,2,3,4-tetrahydro-quinolin-6-yl)-pyridin-3-ylmethyl]-amide]: the EC50 in assay [1] turned out to be 1700 nM; in assay [2], 41 nM.

Take `CCS(=O)(=O)N(C)CCOc1cncc(-c2ccc3c(c2)CCC(=O)N3C)c1` [Example 195, Ethanesulfonic acid methyl-{2-[5-(1-methyl-2-oxo-1,2,3,4-tetrahydro-quinolin-6-yl)-pyridin-3-yloxy]-ethyl}-amide]: the figures for the EC50 in assay [1] and in assay [2] were 56 nM and 1 nM, respectively.

As to `CN(Cc1cncc(-c2ccc3c(c2)CCC(=O)N3C)c1)C(=O)c1ncccc1Cl` [Example 196, 3-Chloro-pyridine-2-carboxylic acid methyl-[5-(1-methyl-2-oxo-1,2,3,4-tetrahydro-quinolin-6-yl)-pyridin-3-ylmethyl]-amide], the EC50 was 514 nM in assay [1] and 8 nM in assay [2].

Consider `CCC(=O)N(C)CCOc1cncc(-c2ccc3c(c2)CCC(=O)N3C)c1` [Example 197, N-Methyl-N-{2-[5-(1-methyl-2-oxo-1,2,3,4-tetrahydro-quinolin-6-yl)-pyridin-3-yloxy]-ethyl}-propionamide], for which the EC50 in assay [1] was 62 nM; in assay [2], 4 nM.

`CN(Cc1cncc(-c2ccc3c(c2)CCC(=O)N3C)c1)C(=O)c1cnn(C)c1` [Example 198, 1-Methyl-1H-pyrazole-4-carboxylic acid methyl-[5-(1-methyl-2-oxo-1,2,3,4-tetrahydro-quinolin-6-yl)-pyridin-3-ylmethyl]-amide]: the EC50 stood at 188 nM in assay [1] and 7 nM in assay [2].

Take `Cc1cccnc1C(=O)N(C)Cc1cncc(-c2ccc3c(c2)CCC(=O)N3C)c1` [Example 199, 3-Methyl-pyridine-2-carboxylic acid methyl-[5-(1-methyl-2-oxo-1,2,3,4-tetrahydro-quinolin-6-yl)-pyridin-3-ylmethyl]-amide]: the figures for the EC50 in assay [1] and in assay [2] were 28 nM and 3 nM, respectively.

The EC50 is the concentration at which the effect is half-maximal. Low readings indicate a more potent agent, high ones a less potent agent.

The values are drawn from patent US9260408B2, “Dihydroquinoline-2-one derivatives” (Hoffmann-La Roche Inc., priority 2011, dated 2016).
